Reference: ChEMBL document CHEMBL5518233, “Design and Synthesis of 3-(2H-Chromen-3-yl)-5-aryl-1,2,4-oxadiazole Derivatives as Novel Toll-like Receptor 2/1 Agonists That Inhibit Lung Cancer In Vitro and In Vivo” (J Med Chem, 2024)
Where a SMILES comes first, the peptide text is derived from it. The star is where a group is joined. X1 = CCCCCCCCCCCCCCCC(=O)OCC(C*)OC(=O)CCCCCCCCCCCCCCC; Palmitoyl = CCCCCCCCCCCCCCCC(=O)*

How the values were obtained:
Toll-like receptor 1/2 [1] = molecular target: T1, Toll-like receptor 1/2 (Homo sapiens, UniProt O60603+Q15399); test: Agonist activity at human TLR2/TLR1 transfected in HEK293T cells incubated for 24 hrs by dual luciferase reporter gene assay; assay type: cell-based
T1 sequence (O60603 whole entry): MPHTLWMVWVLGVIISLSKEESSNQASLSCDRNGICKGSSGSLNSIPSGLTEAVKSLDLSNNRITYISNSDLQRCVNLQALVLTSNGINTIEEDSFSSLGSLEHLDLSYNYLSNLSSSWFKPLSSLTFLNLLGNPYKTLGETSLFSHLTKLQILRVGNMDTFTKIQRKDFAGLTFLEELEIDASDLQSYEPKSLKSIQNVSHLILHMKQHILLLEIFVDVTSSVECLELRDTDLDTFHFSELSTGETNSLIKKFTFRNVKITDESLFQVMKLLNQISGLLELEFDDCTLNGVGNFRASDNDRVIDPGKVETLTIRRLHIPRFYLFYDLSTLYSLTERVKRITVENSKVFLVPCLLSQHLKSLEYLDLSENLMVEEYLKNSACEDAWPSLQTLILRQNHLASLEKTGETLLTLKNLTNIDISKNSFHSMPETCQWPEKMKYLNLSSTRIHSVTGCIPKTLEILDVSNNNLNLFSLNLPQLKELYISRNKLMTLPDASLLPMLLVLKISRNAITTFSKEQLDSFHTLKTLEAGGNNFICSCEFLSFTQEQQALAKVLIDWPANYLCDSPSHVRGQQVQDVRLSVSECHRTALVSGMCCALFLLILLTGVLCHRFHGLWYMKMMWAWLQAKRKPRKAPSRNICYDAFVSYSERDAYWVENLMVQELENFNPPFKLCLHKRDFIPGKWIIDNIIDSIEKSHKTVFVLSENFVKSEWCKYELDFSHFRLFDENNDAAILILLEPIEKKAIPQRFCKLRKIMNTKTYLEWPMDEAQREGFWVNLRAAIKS
T1 sequence (Q15399 whole entry): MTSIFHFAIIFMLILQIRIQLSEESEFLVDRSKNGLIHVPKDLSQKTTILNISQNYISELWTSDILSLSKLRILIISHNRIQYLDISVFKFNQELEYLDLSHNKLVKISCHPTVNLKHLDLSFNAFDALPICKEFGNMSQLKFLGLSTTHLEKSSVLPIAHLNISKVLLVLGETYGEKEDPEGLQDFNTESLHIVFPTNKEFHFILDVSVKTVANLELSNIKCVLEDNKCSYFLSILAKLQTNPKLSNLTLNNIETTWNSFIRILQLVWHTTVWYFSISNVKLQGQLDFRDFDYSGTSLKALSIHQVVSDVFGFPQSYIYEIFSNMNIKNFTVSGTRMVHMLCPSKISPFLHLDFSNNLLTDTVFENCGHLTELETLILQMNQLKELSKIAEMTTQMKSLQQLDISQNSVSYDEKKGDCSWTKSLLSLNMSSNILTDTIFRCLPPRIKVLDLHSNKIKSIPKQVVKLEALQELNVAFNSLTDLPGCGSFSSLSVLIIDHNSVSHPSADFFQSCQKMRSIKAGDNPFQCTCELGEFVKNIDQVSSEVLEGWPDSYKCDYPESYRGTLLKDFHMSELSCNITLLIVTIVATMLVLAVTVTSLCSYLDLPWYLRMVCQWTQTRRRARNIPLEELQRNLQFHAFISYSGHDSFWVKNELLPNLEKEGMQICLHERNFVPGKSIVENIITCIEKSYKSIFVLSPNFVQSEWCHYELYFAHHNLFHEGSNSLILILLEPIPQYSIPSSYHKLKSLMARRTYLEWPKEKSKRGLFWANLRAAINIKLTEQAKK

[2] = Antitumor activity against mouse Lewis lung carcinoma cell line xenografted with C57BL/6J mouse assessed as tumor growth inhibition at 5 mg/kg,ip administrated every 2 days for 21 days relative to control; assay type: functional; conditions: 504 h, time 21 day, read-out: TGI
Toll-like receptor 1/2 [3] = molecular target: T1, Toll-like receptor 1/2; test: Agonist activity at human TLR2/TLR1 transfected in HEK293T cells assessed as relative light unit at 100 ng/ml incubated for 24 hrs by dual luciferase reporter gene assay; assay type: cell-based; conditions: filed as agonist
A549 = test: Antitumor activity against human A549 cells xenografted with BALB/c mouse assessed as tumor growth inhibition at 5 mg/kg,ip administrated every 2 days for 30 days relative to control; assay type: functional; conditions: A549, 720 h, time 30 day, read-out: TGI

**Q.** Which EC50 (Toll-like receptor 1/2 [1]) does the source give for `CNc1ccc([N+](=O)[O-])cc1-n1cnc(-c2ccc(C(F)(F)F)cc2O)c1` here?
**A.** Its EC50 is 35 nM.

**Q.** And the inhibition in vivo at 5 mg/kg [2]?
**A.** The inhibition in vivo at 5 mg/kg was 63.5%.

**Q.** For `O=[N+]([O-])c1ccc(F)c(-c2nc(C3=Cc4ccccc4OC3)no2)c1`, which EC50 (Toll-like receptor 1/2 [1]) is on record?
**A.** Its EC50 is 30.1 nM.

**Q.** Which Activity (Toll-like receptor 1/2 [3]) does the source give for `CCCCCCCCCCCCCCCC(=O)N[C@@H](CSCC(COC(=O)CCCCCCCCCCCCCCC)OC(=O)CCCCCCCCCCCCCCC)C(=O)N[C@@H](CO)C(=O)N[C@@H](CCCCN)C(=O)N[C@@H](CCCCN)C(=O)N[C@@H](CCCCN)C(=O)N[C@@H](CCCCN)C(=O)O` (stereo partly specified) (Palmitoyl-C(X1)SKKKK-OH) here?
**A.** Its Activity is 7.95 RLU.

**Q.** Which inhibition in vivo at 5 mg/kg (A549) does the source give for `O=c1[nH]cc(F)c(=O)[nH]1` [FLUOROURACIL] here?
**A.** The inhibition in vivo at 5 mg/kg was 77.5%.

**Q.** And the inhibition in vivo at 5 mg/kg [2]?
**A.** Its inhibition in vivo at 5 mg/kg is 79.4%.
